Experimental data taken from the supplement of paper PMC10307832.

Assays:
Test in all cases: relative viability (nuclei count vs DMSO), 5 days (fraction); higher = more cells survive
[1] = compound: CN1CCC(CNc2ccc3ncc(-c4cccc(OC(F)(F)F)c4)n3n2)CC1 [SGI-1776] + C[C@]1(O)C[C@@H](c2nc(-c3ccc4ccc(-c5ccccc5)nc4c3)c3c(N)nccn32)C1 [Linsitinib] (partner 1 µM)
In short: (§1)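 A single step with final 0.05% Triton X-100, 1% formaldehyde and 1 ug/ml Hoechst fixed the cells and stained nuclei 5 days after treatment. Lung cancer cell lines in 1536-well plates had been treated by pin tool the day after seeding with one drug alone or a fixed anchor-drug dose plus five library-drug doses (not always all listed) in √10 steps, and nuclei were counted on 4× images. Relative viability is the ratio of nuclei in treated wells to nuclei in vehicle wells, taken as the median of duplicate plates.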

[2] = compound: Nc1ccccc1NC(=O)c1ccc(CNC(=O)OCc2cccnc2)cc1 [Entinostat] + COc1cccc2cc(-c3nc([C@H]4CC[C@H](C(=O)O)CC4)n4ncnc(N)c34)[nH]c12 [OSI-027] (partner 0.5 µM)
In short: as §1

[3] = compound: Nc1ccccc1NC(=O)c1ccc(CNC(=O)OCc2cccnc2)cc1 [Entinostat] + Nc1nc2[nH]cc(CCc3ccc(C(=O)N[C@@H](CCC(=O)O)C(=O)O)cc3)c2c(=O)[nH]1 [Pemetrexed] (partner 0.2 µM)
In short: as §1

[4] = compound: Nc1ccccc1NC(=O)c1ccc(CNC(=O)OCc2cccnc2)cc1 [Entinostat] + NC(=O)Nc1cc(-c2cccc(F)c2)sc1C(=O)N[C@H]1CCCNC1 [AZD7762] (partner 0.2 µM)
In short: as §1

| Cell Line | relative viability ([1]; first compound 0.08 µM) | relative viability ([1]; first compound 0.8 µM) | relative viability ([1]; first compound 2.53 µM) | relative viability ([1]; first compound 8 µM) | relative viability ([2]; first compound 0.02 µM) | relative viability ([2]; first compound 0.06325 µM) | relative viability ([2]; first compound 0.2 µM) | relative viability ([2]; first compound 0.6325 µM) | relative viability ([2]; first compound 2 µM) | relative viability ([3]; first compound 0.02 µM) | relative viability ([3]; first compound 0.06325 µM) | relative viability ([3]; first compound 0.2 µM) | relative viability ([3]; first compound 0.6325 µM) | relative viability ([3]; first compound 2 µM) | relative viability ([4]; first compound 0.02 µM) | relative viability ([4]; first compound 0.06325 µM) | relative viability ([4]; first compound 0.2 µM) | relative viability ([4]; first compound 0.6325 µM) | relative viability ([4]; first compound 2 µM) |
| --- | --- | --- | --- | --- | --- | --- | --- | --- | --- | --- | --- | --- | --- | --- | --- | --- | --- | --- | --- |
| NCI-H520 | 1.17 | 1.02 | 1.05 | 0.848 | 0.335 | 0.277 | 0.274 | 0.385 | 0.407 | 0.644 | 0.712 | 0.875 | 0.689 | 0.418 | – | – | – | – | – |
| Calu-6 | 1.07 | 0.986 | 0.997 | 0.818 | – | – | – | – | – | – | – | – | – | – | – | – | – | – | – |
| SK-LU-1 | 1.33 | 1.24 | 1.06 | 0.633 | 0.357 | 0.448 | 0.35 | 0.261 | 0.231 | 1 | 0.921 | 0.988 | 0.879 | 0.485 | – | – | – | – | – |
| LCLC-97TM1 | 0.193 | 0.154 | 0.187 | 0.16 | 0.583 | 0.462 | 0.51 | 0.408 | 0.43 | 0.149 | 0.169 | 0.148 | 0.196 | 0.168 | 0.246 | 0.283 | 0.283 | 0.281 | 0.243 |
| HCC-15 | 0.866 | 0.942 | 0.87 | 0.657 | 0.669 | 0.617 | 0.583 | 0.347 | 0.239 | 0.237 | 0.215 | 0.237 | 0.197 | 0.159 | 1.19 | 1.2 | 1.26 | 0.774 | 0.457 |
| H3255 | 1.1 | 1.04 | 0.921 | 0.792 | 0.589 | 0.582 | 0.503 | 0.309 | 0.232 | 0.586 | 0.57 | 0.549 | 0.414 | 0.378 | 1 | 0.901 | 0.756 | 0.539 | 0.333 |
| NCI-H1915 | 1.11 | 1.12 | 1.13 | 1.1 | 0.594 | 0.605 | 0.58 | 0.283 | 0.222 | 0.417 | 0.536 | 0.475 | 0.403 | 0.188 | 0.713 | 0.694 | 0.716 | 0.526 | 0.286 |
| NCI-H1650 | – | – | – | – | 0.73 | 0.585 | 0.589 | 0.349 | 0.184 | 0.389 | 0.455 | 0.44 | 0.359 | 0.241 | – | – | – | – | – |
| NCI-H647 | 1.29 | 1.16 | 0.978 | 0.739 | 0.677 | 0.537 | 0.562 | 0.302 | 0.179 | 0.192 | 0.184 | 0.161 | 0.0878 | 0.0714 | 0.49 | 0.557 | 0.55 | 0.186 | 0.0556 |
| NCI-H727 | 0.254 | 0.26 | 0.346 | 0.241 | 0.679 | 0.808 | 0.5 | 0.493 | 0.398 | – | – | – | – | – | 0.598 | 0.667 | 0.624 | 0.646 | 0.776 |
| NCI-H522 | – | – | – | – | 0.84 | 0.764 | 0.85 | 0.688 | 0.555 | 0.848 | 1.21 | 1.12 | 1.04 | 0.774 | 0.779 | 0.846 | 0.85 | 1.07 | 0.796 |
| COR-L23 | 0.886 | 0.965 | 0.864 | 0.668 | 0.67 | 0.599 | 0.621 | 0.291 | 0.264 | 0.21 | 0.184 | 0.197 | 0.179 | 0.167 | – | – | – | – | – |
| NCI-H2009 | 1.22 | 1.16 | 1.3 | 1.09 | 0.59 | 0.691 | 0.628 | 0.636 | 0.451 | 0.949 | 0.965 | 0.963 | 0.84 | 0.619 | – | – | – | – | – |
| NCI-H661 | 0.74 | 0.643 | 0.545 | 0.502 | 0.688 | 0.757 | 0.724 | 0.54 | 0.629 | 0.886 | 0.916 | 0.814 | 0.663 | 0.354 | – | – | – | – | – |
| ChaGo-K-1 | – | – | – | – | 0.606 | 0.513 | 0.56 | 0.436 | 0.378 | 0.269 | 0.262 | 0.271 | 0.264 | 0.259 | 0.872 | 0.861 | 0.962 | 0.897 | 0.692 |
| SK-MES-1 | 1.09 | 1.09 | 1.14 | 1.03 | 0.584 | 0.66 | 0.792 | 0.595 | 0.532 | 0.929 | 1.01 | 1.04 | 0.944 | 0.577 | – | – | – | – | – |
| NCI-H1648 | – | – | – | – | 0.247 | 0.27 | 0.257 | 0.271 | 0.296 | 0.736 | 0.685 | 0.772 | 0.38 | 0.407 | 0.789 | 0.715 | 0.725 | 0.566 | 0.485 |
| NCI-H1703 | 0.662 | 0.979 | 0.433 | 0.13 | – | – | – | – | – | – | – | – | – | – | 0.109 | 0.153 | 0.129 | 0.116 | 0.106 |
| EBC-1 | 0.969 | 0.85 | 1.02 | 0.675 | – | – | – | – | – | – | – | – | – | – | – | – | – | – | – |
| NCI-H2023 | 0.727 | 0.77 | 0.666 | 0.444 | 0.287 | 0.29 | 0.264 | 0.12 | 0.0886 | 0.199 | 0.192 | 0.152 | 0.127 | 0.0994 | – | – | – | – | – |
| NCI-H1563 | 1.14 | 1.19 | 1.16 | 1.08 | 0.723 | 0.687 | 0.707 | 0.653 | 0.547 | 0.77 | 0.906 | 0.837 | 0.826 | 0.679 | – | – | – | – | – |
| ABC-1 | 0.745 | 0.895 | 0.883 | 0.742 | 0.446 | 0.524 | 0.544 | 0.351 | 0.247 | – | – | – | – | – | 0.803 | 0.727 | 0.951 | 0.86 | 0.59 |
| NCI-H2170 | – | – | – | – | 0.745 | 0.65 | 0.742 | 0.607 | 0.373 | 0.255 | 0.283 | 0.273 | 0.228 | 0.229 | 0.876 | 0.878 | 0.825 | 0.602 | 0.193 |
